Patent US5763395A, “Stabilized lanthionine bacteriocin compositions” (Ambi Inc., priority 1995, dated 1998)
Where “and” joins values, the source holds several entries; their conditions need not be identical. Identical values can stand only once. Each block holds one compound with its values, some of them ahead of it.

Legend:
[1] = Nisin stability in topical germicide formulations under stressed conditions (RPHPLC); details: for Residual nisin concentration as a percentage of the theoretical concentration: 5 days 40° C., pH 6, additive 1 mM (nisin = control)
Description: i) Analytical reverse phase high pressure liquid chromatography (RPHPLC). The analyte (nisin) in solution is passed through a column of hydrophic beads to which the nisin tends to bind. The solution flowing through the column is then made progressively more hydrophobic by increasing acetonitrile concentration until it causes the nisin to be released from the beads and eluted from the column. The emergence of the nisin from the column is detected by measuring the absorbance of light at 210 nm by the effluent.
In order to expedite the execution of these experiments the formulations were subjected to "stressed" conditions, ie pH 6 and 40° C.; both intended to accelerate any degradation effects taking place. The stability of nisin in the formulations was evaluated by RPHPLC.
Formulations were prepared with nisin at 25 μg/ml and titrated to pH 6. […]

[2] = Commonly used antioxidants tested for protection of nisin in formulation; assay type: physicochemical; details: methods of Example 2
Method: In order to further analyze the nisin degradation associated with one particular surfactant/emulsifier, polysorbate, material was obtained from as many manufacturers as possible. Where possible, multiple production batches were obtained from each manufacturer. Other emulsifiers or surfactants believed to closely resemble polysorbate in their properties as well as dissimilar surfactants were also tested. An oral rinse formulation containing nisin was prepared using each of these compounds and, after incubation, samples were analyzed to evaluate nisin stability.
A number of commonly used antioxidants were tested for their ability to protect nisin in formulation using the methods described in Example 2. None of the compounds tested gave satisfactory protection of nisin.

[3] = Glycerol/sorbitol batches and chelating agents screened for effects on nisin stability in oral rinse formulations (RPHPLC); assay type: physicochemical
Method: i) Analytical reverse phase high pressure liquid chromatography (RPHPLC).
Formulations of nisin useful as oral rinses comprising EDTA and the humectant glycerol were also prepared and analyzed by RPHPLC.
Glycerol and sorbitol from a number of sources, and a number of alternative chelators, were screened (Tables 2 and 3).

[4] = T-MAZ 20 1%, 6 days at 40° C., initial nisin 25 μg/ml, label nisin = no methionine
[5] = T-MAZ 20 BATCH 348, 2 weeks at 40° C., nisin formulated at 25 μg/ml, label nisin = water control
[6] = T-MAZ 20 BATCH 357, 2 weeks at 40° C., nisin formulated at 25 μg/ml, label nisin = water control
[7] = T-MAZ 20 batch 348, EDTA 1 mM, nisin 25 μg/ml, samples jd6-35-H 49-52
[8] = T-MAZ 20 batch 348, citrate 0.1%, nisin 25 μg/ml, samples jd6-35-H 53-56
[9] = T-MAZ 20 batch 348, citrate 0.3%, nisin 25 μg/ml, samples jd6-35-H 57-60
[10] = T-MAZ 20 batch 348, citrate 1.0%, nisin 25 μg/ml, samples jd6-35-H 61-64
[11] = T-MAZ 20 batch 357, EDTA 1 mM, nisin 25 μg/ml, samples jd6-35-H 33-36
[12] = T-MAZ 20 batch 357, citrate 0.1%, nisin 25 μg/ml, samples jd6-35-H 37-40
[13] = T-MAZ 20 batch 357, citrate 0.3%, nisin 25 μg/ml, samples jd6-35-H 41-44
[14] = T-MAZ 20 batch 357, citrate 1.0%, nisin 25 μg/ml, samples jd6-35-H 45-48

SMILES: COC(=O)C(N)CCSC (racemic) [DL-methionine methyl ester]
Residual nisin concentration [1, 4]: 21.9 µg/mL and 20.8 µg/mL

SMILES: CS(=O)(=O)CCC(N)C(=O)O (racemic) [DL-methionine sulfone]
Residual nisin concentration [1, 4]: 8.6 µg/mL

SMILES: C[S+]([O-])CCC(N)C(=O)O (racemic) [DL-methionine sulfoxide]
Residual nisin concentration [1, 4]: 8.6 µg/mL

SMILES: CSCCC(N)C(=O)O (racemic) [DL-methionine]
Residual nisin concentration [1, 4]: 19.7 µg/mL

SMILES: CSCCC(O)C(=O)O (racemic) [MHA, 2-hydroxy-4-(methylthio)butanoic acid]
Residual nisin concentration ([1]; T-MAZ 20 1%, 6 days at 40° C., initial nisin 25 μg/ml, label nisin = no methionine, listed as methionine hydroxy analog (MHA Novus)): 19.8 µg/mL | Residual nisin concentration ([1]; T-MAZ 20 1%, 6 days at 40° C., initial nisin 25 μg/ml, label nisin = no methionine, listed as methionine hydroxy analog (Sigma)): 18.1 µg/mL | Residual nisin concentration [1, 5]: 23.4 µg/mL | Residual nisin concentration [1, 6]: 22.5 µg/mL

Protection of nisin in formulation by antioxidants, in words [2]: aggravated the stability problem
SMILES: O[C@H](CS)[C@H](O)CS (racemic) [dithiothreitol]

SMILES: N[C@@H](CS)C(=O)O [CySH, cysteine]
Residual nisin concentration as a percentage of the theoretical concentration [1, 7]: 51% | Residual nisin concentration as a percentage of the theoretical concentration [1, 8]: 36% | Residual nisin concentration as a percentage of the theoretical concentration [1, 9]: 29% | Residual nisin concentration as a percentage of the theoretical concentration [1, 10]: 33% | Residual nisin concentration as a percentage of the theoretical concentration [1, 11]: 85% | Residual nisin concentration as a percentage of the theoretical concentration [1, 12]: 29% | Residual nisin concentration as a percentage of the theoretical concentration [1, 13]: 36% | Residual nisin concentration as a percentage of the theoretical concentration [1, 14]: 31%

SMILES: CSCC[C@H](N)C(=O)O [L-methionine]
Residual nisin concentration [1, 4]: 19.9 µg/mL

SMILES: NCCCC[C@H](N)C(=O)O [Lys, lysine]
Residual nisin concentration as a percentage of the theoretical concentration [1, 7]: 56% | Residual nisin concentration as a percentage of the theoretical concentration [1, 8]: 45% | Residual nisin concentration as a percentage of the theoretical concentration [1, 9]: 47% | Residual nisin concentration as a percentage of the theoretical concentration [1, 10]: 49% | Residual nisin concentration as a percentage of the theoretical concentration [1, 11]: 80% | Residual nisin concentration as a percentage of the theoretical concentration [1, 12]: 71% | Residual nisin concentration as a percentage of the theoretical concentration [1, 13]: 71% | Residual nisin concentration as a percentage of the theoretical concentration [1, 14]: 71%

Protection of nisin in formulation by antioxidants, in words [2]: aggravated the stability problem
SMILES: O=C1O[C@H]([C@@H](O)CO)C(O)=C1O [ascorbate, ascorbic acid]

Effect of humectant (glycerol, sorbitol) and chelating agent on nisin stability, in words [3]: superior to EDTA
SMILES: O=C(O)CC(O)(CC(=O)O)C(=O)O [citrate]

SMILES: N[C@@H](CS(=O)(=O)O)C(=O)O [cysteic acid]
Residual nisin concentration [1, 5]: 9.6 µg/mL | Residual nisin concentration [1, 6]: 19.5 µg/mL

SMILES: N[C@@H](CSSC[C@H](N)C(=O)O)C(=O)O [cystine]
Residual nisin concentration [1, 5]: 9.0 µg/mL | Residual nisin concentration [1, 6]: 11.1 µg/mL

SMILES: N[C@@H](CSC[C@H](N)C(=O)O)C(=O)O [lanthionine]
Residual nisin concentration [1, 5]: 10.7 µg/mL | Residual nisin concentration [1, 6]: 18.2 µg/mL

SMILES: CSCC[C@H](N)C(=O)O [methionine]
Residual nisin concentration [1, 5]: 23.3 µg/mL | Residual nisin concentration [1, 6]: 23.2 µg/mL | Residual nisin concentration as a percentage of the theoretical concentration [1, 7]: 80% | Residual nisin concentration as a percentage of the theoretical concentration [1, 8]: 76% | Residual nisin concentration as a percentage of the theoretical concentration [1, 9]: 73% | Residual nisin concentration as a percentage of the theoretical concentration [1, 10]: 73% | Residual nisin concentration as a percentage of the theoretical concentration [1, 11]: 84% | Residual nisin concentration as a percentage of the theoretical concentration [1, 12]: 75% | Residual nisin concentration as a percentage of the theoretical concentration [1, 13]: 76% | Residual nisin concentration as a percentage of the theoretical concentration [1, 14]: 73%

SMILES: O=S([O-])[O-].[Na+].[Na+] [sodium sulfite]
Protection of nisin in formulation by antioxidants, in words [2]: aggravated the stability problem

SMILES: C1CSCN1 [thizaolidine, thiazolidine]
Residual nisin concentration [1, 5]: 14.9 µg/mL | Residual nisin concentration [1, 6]: 17.3 µg/mL | Stabilization of nisin from degradation by sulfur-containing compounds, in words ([1]; nisin 25 μg/ml, T-MAZ 20, propyleneglycol, 1-propanol, EDTA or citrate, pH 6, 40° C.): To a lesser degree, nisin was also stabilized
